Reference: patent US9181259B2 (LEO PHARMA A/S, priority 2012, dated 2015)
Structures can show the parent of a compound that is named as a salt.

Molecular target: T1, NK1 receptor (Homo sapiens, UniProt P25103)
T1 construct: Measurement of NK1 Receptor Mediated Intracellular [Ca^2+]; Mobilization in U251 MG Cells Using FLIPR; endogenous in cells; host or cells: U251 MG cells
Assay: NK1 receptor mediated intracellular [Ca2+] mobilization in U251 MG cells using FLIPR
Assay type: cell-based
Conditions: antagonist potency against Substance P (EC80), normalized to 100 nM Aprepitant, read-out: U251MG (FLIPR pIC50) (converted)
Procedure: Measurement of NK1 Receptor Mediated Intracellular [Ca^2+] Mobilization in U251 MG Cells Using FLIPR
U251 MG cells were seeded into black walled clear-bottom 384-well plates (Greiner Bio-One GmbH, Frickenhausen, Germany) at a density of 15,000 cells/well in 50 μl culture medium and cultured overnight in a 37° C. 5% CO2 incubator. The cells were then loaded with the calcium sensitive dye Fluo-4 (Invitrogen) at 1 μM in buffer, containing 0.04%
Pluronic F-127 (Sigma-Aldrich), and 2.5 mM probenecid (Sigma-Aldrich) for 60 min in a humidified atmosphere of 5% CO2. Thereafter, cells were washed three times in washing buffer containing 20 mM HEPES and 2.5 mM probenecid pH 7.3. Serial dilutions of test compounds in assay buffer containing 2% dimethyl sulfoxide (final concentration in the cell plate is 0.5% DMSO) and/or agonist were then automatically pipetted into each test well, and the peak fluorescence intensity was recorded (lex, 488 nm; lem, 540 nm) by the FLIPR instrument (Molecular Devices) for approximately 5 min. To measure antagonist potency, cell plates were first incubated with the test compound and intracellular fluorescence recorded for 5 minutes to check a potential agonist effect of the test compound. Cell plates were quickly removed from the FLIPR instrument and incubated for additional 10 minutes at 37° C. before being moved back to the FLIPR instrument for Substance P (EC80) addition. The response was measured as the peak relative fluorescence change after agonist addition.
The IC50 value is defined as the molar concentration of a test compound that produces a response midway between the fitted top and the fitted bottom. pIC50=−log IC50
Formula is listed as follows: Fit(% Effect calculated)=(A+((B−A)/(1+((C/X)^D)))) • A: bottom value • B: top value • C: […] • D: Hill slope coefficient
Ref: Sullivan E, Tucker E M, and Dale I L. Measurement of [Ca^2+] using the Fluorometric Imaging Plate Reader (FLIPR). Methods Mol Biol 114:125-133, 1999.
Compounds of the present invention were tested according to example 120.

T1 sequence (P25103 whole entry): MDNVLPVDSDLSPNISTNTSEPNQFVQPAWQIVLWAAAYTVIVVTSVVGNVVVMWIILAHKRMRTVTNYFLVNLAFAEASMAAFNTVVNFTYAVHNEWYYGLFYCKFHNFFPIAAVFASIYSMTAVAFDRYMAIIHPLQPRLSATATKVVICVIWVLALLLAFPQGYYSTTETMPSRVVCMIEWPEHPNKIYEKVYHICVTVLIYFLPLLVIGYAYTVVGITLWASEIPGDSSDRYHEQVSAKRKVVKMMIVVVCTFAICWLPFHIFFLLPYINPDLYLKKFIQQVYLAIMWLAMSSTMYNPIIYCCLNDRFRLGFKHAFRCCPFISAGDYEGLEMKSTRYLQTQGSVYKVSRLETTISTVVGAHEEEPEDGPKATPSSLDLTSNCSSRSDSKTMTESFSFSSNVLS

Cc1ccccc1C1C2CC(CO)CN2CCN1C(=O)N(C)Cc1cc(C(F)(F)F)cc(C(F)(F)F)c1 (single isomer, unassigned) [Compound 28, N-{[3,5-bis(trifluoromethyl)phenyl]methyl}-7-(hydroxymethyl)-N-methyl-1-(2-methylphenyl)-octahydropyrrolo[1,2-a]piperazine-2-carboxamide; methanesulfonic acid salt]
IC50: 0.912 nM

Cc1ccccc1C1C2CC(CN3CCCC3)C(=O)N2CCN1C(=O)N(C)Cc1cc(C(F)(F)F)cc(C(F)(F)F)c1 (single isomer, unassigned) [Compound 31, N-{[3,5-bis(trifluoromethyl)phenyl]methyl}-N-methyl-1-(2-methylphenyl)-6-oxo-7-(pyrrolidin-1-ylmethyl)-octahydropyrrolo[1,2-a]piperazine-2-carboxamide]
IC50: 0.513 nM

C=C1CC2C(c3ccccc3C)N(C(=O)N(C)Cc3cc(C(F)(F)F)cc(C(F)(F)F)c3)CCN2C1=O (single isomer, unassigned) [Compound 32, N-{[3,5-bis(trifluoromethyl)phenyl]methyl}-N-methyl-7-methylidene-1-(2-methylphenyl)-6-oxo-octahydropyrrolo[1,2-a]piperazine-2-carboxamide]
IC50: 0.437 nM

Cc1ccccc1C1C2CC(CCO)C(=O)N2CCN1C(=O)N(C)C(CCO)c1cc(C(F)(F)F)cc(C(F)(F)F)c1 (single isomer, unassigned) [Compound 34, N-{1-[3,5-bis(trifluoromethyl)phenyl]-3-hydroxypropyl}-7-(2-hydroxyethyl)-N-methyl-1-(2-methylphenyl)-6-oxo-octahydropyrrolo[1,2-a]piperazine-2-carboxamide]
IC50: 15.5 nM

Cc1ccccc1C1C2CC(CCO)C(=O)N2CCN1C(=O)N(C)C(CCO)c1cc(C(F)(F)F)cc(C(F)(F)F)c1 (single isomer, unassigned) [Compound 35, N-{1-[3,5-bis(trifluoromethyl)phenyl]-3-hydroxypropyl}-7-(2-hydroxyethyl)-N-methyl-1-(2-methylphenyl)-6-oxo-octahydropyrrolo[1,2-a]piperazine-2-carboxamide]
IC50: 0.2 nM

Cc1ccccc1C1C2CC(CN3CCOCC3)C(=O)N2CCN1C(=O)N(C)Cc1cc(C(F)(F)F)cc(C(F)(F)F)c1 (single isomer, unassigned) [Compound 39]
IC50: 2.88 nM

Cc1ccccc1C1C2CC(CN3CCOCC3)C(=O)N2CCN1C(=O)N(C)Cc1cc(C(F)(F)F)cc(C(F)(F)F)c1 (single isomer, unassigned) [Compound 40]
IC50: 7.76 nM

Cc1ccccc1C1C2CC3(CCN(C)CC3)C(=O)N2CCN1C(=O)N(C)Cc1cc(C(F)(F)F)cc(C(F)(F)F)c1 (single isomer, unassigned) [Compound 46, N-{[3,5-bis(trifluoromethyl)phenyl]methyl}-N,1-dimethyl-4′-(2-methylphenyl)-1′-oxo-hexahydro-1′H-spiro[piperidine-4,2′-pyrrolo[1,2-a]piperazine]-5′-carboxamide]
IC50: 4.57 nM

Cc1ccccc1C1C2CC(CO)CN2CCN1C(=O)N(C)Cc1cc(C(F)(F)F)cc(C(F)(F)F)c1 (single isomer, unassigned) [Compound 48, N-{[3,5-bis(trifluoromethyl)phenyl]methyl}-7-(hydroxymethyl)-N-methyl-1-(2-methylphenyl)-octahydropyrrolo[1,2-a]piperazine-2-carboxamide]
IC50: 0.224 nM

Cc1ccccc1C1C2CC(CN3CCOCC3)C(=O)N2CCN1C(=O)N(C)Cc1cc(C(F)(F)F)cc(C(F)(F)F)c1 (single isomer, unassigned) [Compound 51]
IC50: 0.12 nM

Cc1ccccc1C1C2CC(CCO)(CCO)C(=O)N2CCN1C(=O)N(C)[C@H](C)c1cc(C(F)(F)F)cc(C(F)(F)F)c1 (single isomer, unassigned) [Compound 53]
IC50: 2.45 nM

Cc1ccccc1C1C2CC(CO)C(=O)N2CCN1C(=O)N(C)[C@H](C)c1cc(C(F)(F)F)cc(C(F)(F)F)c1 (single isomer, unassigned) [Compound 57]
IC50: 1.51 nM

Cc1ccccc1C1C2CC(CO)C(=O)N2CCN1C(=O)N(C)[C@H](C)c1cc(C(F)(F)F)cc(C(F)(F)F)c1 (single isomer, unassigned) [Compound 58]
IC50: 11.5 nM

Cc1ccccc1C1C2CC(CCO)(CCO)CN2CCN1C(=O)N(C)[C@H](C)c1cc(C(F)(F)F)cc(C(F)(F)F)c1 (single isomer, unassigned) [Compound 59]
IC50: 60.3 nM

Cc1ccccc1C1C2CCCN2CCN1C(=O)N(C)Cc1cc(C(F)(F)F)cc(C(F)(F)F)c1 (single isomer, unassigned) [Compound 61, N-{[3,5-bis(trifluoromethyl)phenyl]methyl}-N-methyl-1-(2-methylphenyl)-octahydropyrrolo[1,2-a]piperazine-2-carboxamide]
IC50: > 100 nM

Cc1ccccc1C1C2CCCN2CCN1C(=O)N(C)Cc1cc(C(F)(F)F)cc(C(F)(F)F)c1 (single isomer, unassigned) [Compound 62, N-{[3,5-bis(trifluoromethyl)phenyl]methyl}-N-methyl-1-(2-methylphenyl)-octahydropyrrolo[1,2-a]piperazine-2-carboxamide]
IC50: 0.955 nM

Cc1ccccc1C1C2CCCN2CCN1C(=O)N(C)[C@H](C)c1cc(C(F)(F)F)cc(C(F)(F)F)c1 (single isomer, unassigned) [Compound 64]
IC50: 42.7 nM

Cc1ccccc1C1C2CC(CCO)(CCO)CN2CCN1C(=O)N(C)Cc1cc(C(F)(F)F)cc(C(F)(F)F)c1 (single isomer, unassigned) [Compound 65, N-{[3,5-bis(trifluoromethyl)phenyl]methyl}-7,7-bis(2-hydroxyethyl)-N-methyl-1-(2-methylphenyl)-octahydropyrrolo[1,2-a]piperazine-2-carboxamide]
IC50: 30.2 nM

Cc1ccccc1C1C2CC(CO)CN2CCN1C(=O)N(C)[C@H](C)c1cc(C(F)(F)F)cc(C(F)(F)F)c1 (single isomer, unassigned) [Compound 67]
IC50: 0.204 nM

Cc1ccccc1C1C2CC(CO)CN2CCN1C(=O)N(C)[C@H](C)c1cc(C(F)(F)F)cc(C(F)(F)F)c1 (single isomer, unassigned) [Compound 68]
IC50: 4.47 nM

Cc1ccccc1C1C2CC(CO)CN2CCN1C(=O)N(C)[C@H](C)c1cc(C(F)(F)F)cc(C(F)(F)F)c1 (single isomer, unassigned) [Compound 69]
IC50: 0.214 nM

Cc1ccccc1C1C2CC(CO)CN2CCN1C(=O)N(C)[C@H](C)c1cc(C(F)(F)F)cc(C(F)(F)F)c1 (single isomer, unassigned) [Compound 70]
IC50: 66.1 nM

Cc1ccccc1C1C2CC(CN3CCOCC3)C(=O)N2CCN1C(=O)N(C)[C@H](C)c1cc(C(F)(F)F)cc(C(F)(F)F)c1 (single isomer, unassigned) [Compound 71]
IC50: 28.2 nM

Cc1ccccc1C1C2CC(CN3CCOCC3)C(=O)N2CCN1C(=O)N(C)[C@H](C)c1cc(C(F)(F)F)cc(C(F)(F)F)c1 (single isomer, unassigned) [Compound 72]
IC50: 8.13 nM

Cc1ccccc1C1C2CC(CN3CCOCC3)C(=O)N2CCN1C(=O)N(C)[C@H](C)c1cc(C(F)(F)F)cc(C(F)(F)F)c1 (single isomer, unassigned) [Compound 73]
IC50: 0.107 nM

Cc1ccccc1C1C2CC(CN3CCOCC3)C(=O)N2CCN1C(=O)N(C)[C@H](C)c1cc(C(F)(F)F)cc(C(F)(F)F)c1 (single isomer, unassigned) [Compound 74]
IC50: 0.0891 nM

Cc1ccccc1[C@H]1[C@@H]2CC(CCO)(CCO)C(=O)N2CCN1C(=O)N(C)C(CCO)c1cc(C(F)(F)F)cc(C(F)(F)F)c1 (single isomer, unassigned) [Compound 81]
IC50: 0.12 nM

Cc1ccccc1[C@H]1[C@@H]2CC(CCO)(CCO)C(=O)N2CCN1C(=O)N(C)C(CCO)c1cc(C(F)(F)F)cc(C(F)(F)F)c1 (single isomer, unassigned) [Compound 82]
IC50: 0.112 nM

Cc1ccccc1C1C2CC(C)(C(=O)O)C(=O)N2CCN1C(=O)N(C)Cc1cc(C(F)(F)F)cc(C(F)(F)F)c1 (stereo not drawn) [Compound 8, 2-({[3,5-bis(trifluoromethyl)phenyl]methyl}(methyl)carbamoyl)-7-methyl-1-(2-methylphenyl)-6-oxo-octahydropyrrolo[1,2-a]piperazine-7-carboxylic acid]
IC50: 61.7 nM

COC(=O)C1(C)CC2C(c3ccccc3C)N(C(=O)N(C)Cc3cc(C(F)(F)F)cc(C(F)(F)F)c3)CCN2C1=O (stereo not drawn) [Compound 11, Methyl 2-({[3,5-bis(trifluoromethyl)phenyl]methyl}(methyl)carbamoyl)-7-methyl-1-(2-methylphenyl)-6-oxo-octahydropyrrolo{1,2-a}piperazine-7-carboxylate]
IC50: 0.813 nM
